Counter-ions that a name gives are not always drawn.
biological target: human β2 adrenergic receptor (Homo sapiens, UniProt P07550); assay: cell-based; conditions: 10 min; compounds tested at 10 nM, isoproterenol at 10 μM; CHO cells, 10 min at 37° C; read-out: β2: % of isoproterenol activity (increase in cAMP)
Method: The activity of the test compounds on human β-adrenergic receptors was determined with Chinese hamster ovary (CHO) cells transfected with human β2, or β1 adrenergic receptors. Agonist activity is indicated by increased cAMP levels in the CHO cells. Selectivity of the test compounds for the β3 receptor was assessed by comparison with results in β2 and β1 adrenergic receptor transfected cells.
1). Chinese hamster ovary (CHO) cells transfected with human β2, or β1 adrenergic receptors were used in the assay.
2). Cells were grown to confluent conditions in 24 well plates.
3). Drugs were dissolved in DMSO at a concentration of 10 μM.
4). Cells were incubated with drug at 10 nM concentration for 10 min at 37° C.
5). Cell cAMP concentrations were assayed using a scintillation proximity assay kit from Amersham Corp., Chicago, Ill.
6). Activities for the test compounds are expressed as a percentage of the isoproterenol response.
Production of the CHO cells transfected with human β2, or β1 adrenergic receptors, and compound test procedures utilizing the CHO cells, are described by Emorine et al. in their article "Molecular Characterization of the Human Beta3 -Adrenergic Receptor", Science 1989, 245(8), 1118-1121 and by Muzzin et al. in the article "An Adipose Tissue-Specific Beta3 -Adrenergic Receptor", J. Biol. Chem.1991, 266, 24053-24058.
^a Human β receptors expressed in Chinese hamster ovary cells,
compounds tested at 10 nM, results expressed as % of isoproterenol
activity (increase in cAMP) at 10 μM. EC50 (μM) values
determined for selected compounds.

Sequence of human β2 adrenergic receptor (P07550 whole entry): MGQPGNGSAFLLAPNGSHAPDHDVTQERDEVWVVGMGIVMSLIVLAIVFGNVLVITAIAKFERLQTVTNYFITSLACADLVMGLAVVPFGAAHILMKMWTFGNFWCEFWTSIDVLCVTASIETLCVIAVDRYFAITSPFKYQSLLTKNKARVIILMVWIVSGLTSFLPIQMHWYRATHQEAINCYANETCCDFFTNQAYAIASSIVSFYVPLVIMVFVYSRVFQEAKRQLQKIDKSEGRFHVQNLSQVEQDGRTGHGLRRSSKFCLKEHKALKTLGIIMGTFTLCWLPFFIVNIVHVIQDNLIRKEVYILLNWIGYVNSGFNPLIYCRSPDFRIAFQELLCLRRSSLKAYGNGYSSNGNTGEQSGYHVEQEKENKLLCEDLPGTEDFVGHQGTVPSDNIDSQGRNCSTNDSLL

Row | activation at 0.01 µM [%] | Structure (SMILES)
1 | 1 | CC(Cc1ccc2c(c1)OC(C(=O)OCC1(C)CC1)(C(=O)OCC1(C)CC1)O2)NCC(O)c1cccc(Cl)c1 (stereo not shown) [Example 39, 5-{2-[2-(3-Chloro-phenyl)-2-hydroxy-ethylamino]-propyl}-benzo[1,3]dioxole-2,2-dicarboxylic acid bis-(1-methyl-cyclopropylmethyl) ester]
2 | 2 | C[C@H](Cc1ccc2c(c1)OC(C(=O)OC1CCCCCCC1)(C(=O)OC1CCCCCCC1)O2)NC[C@H](O)c1cccc(Cl)c1 [Example 100, 5-{(2R)-2-[(2R)-2-(3-Chloro-phenyl)-2-hydroxy-ethylamino]-propyl}-benzo[1,3]dioxole-2,2-dicarboxylic acid dicyclooctyl ester]
3 | 0 | CCC(=O)OCOC(=O)C1(C(=O)OCOC(=O)CC)Oc2ccc(CC(C)NCC(O)c3cccc(Cl)c3)cc2O1 (stereo not shown) [Example 43, 5-{2-[2-(3-Chloro-phenyl)-2-hydroxyethylamino]propyl}benzo[1,3] dioxole-2,2-dicarboxylic acid bis-propionyloxymethyl ester]
4 | 3 | CC(Cc1ccc2c(c1)OC(C(=O)O)(C(=O)O)O2)N1COC(c2cccc(Cl)c2)C1 (stereo not shown) [Example 66]
5 | 6 | CCCCCCCCCOC(=O)C1(C(=O)OCCCCCCCCC)Oc2ccc(CC(C)NCC(O)c3cccc(Cl)c3)cc2O1 (stereo not shown) [Example 18, 5-{2-[2-(3-Chloro-phenyl)-2-hydroxy-ethylamino]-propyl}-benzo[1,3]dioxole-2,2-dicarboxylic acid dinonyl ester]
6 | 2 | C[C@H](Cc1ccc2c(c1)OC(C(=O)OCCCOCc1ccccc1)(C(=O)OCCCOCc1ccccc1)O2)NC[C@H](O)c1cccc(Cl)c1 [Example 104, 5-{(2R)-2-[(2R)-2-(3-Chloro-phenyl)-2-hydroxy-ethylamino]-propyl}benzo[1,3]dioxole-2,2-dicarboxylic acid bis-(3-benzyloxy-propyl)ester]
7 | 16 | CCCCCCC(=O)OCOC(=O)C1(C(=O)OCOC(=O)CCCCCC)Oc2ccc(CC(C)NCC(O)c3cccc(Cl)c3)cc2O1 (stereo not shown) [Example 46, 5-{2-[2-(3-Chloro-phenyl)-2-hydroxyethylamino]propyl}benzo[1,3] dioxole-2,2-dicarboxylic acid bis-heptanoyloxymethyl ester]
8 | 8 | CC(Cc1ccc2c(c1)OC(C(=O)OCOC(=O)c1ccccc1)(C(=O)OCOC(=O)c1ccccc1)O2)NCC(O)c1cccc(Cl)c1 (stereo not shown) [Example 56, 5-{2-[2-(3-Chloro-phenyl)-2-hydroxy-ethylamino]propyl}benzo[1,3]dioxole-2,2-dicarboxylic acid bis-benzoyloxymethyl ester]
9 | 0 | CC(Cc1ccc2c(c1)OC(C(=O)OCOC(=O)CCC1CCCC1)(C(=O)OCOC(=O)CCC1CCCC1)O2)NCC(O)c1cccc(Cl)c1 (stereo not shown) [Example 55, 5-{2-[2-(3-Chloro-phenyl)-2-hydroxy-ethylamino]propyl}benzo[1,3]dioxole-2,2-dicarboxylic acid bis-(3-cyclopentyl-propionyloxymethyl) ester]
10 | 0 | CC(Cc1ccc2c(c1)OC(C(=O)OC(C)OC(=O)c1ccccc1)(C(=O)OC(C)OC(=O)c1ccccc1)O2)NCC(O)c1cccc(Cl)c1 (stereo not shown) [Example 57, 5-{2-[2-(3-Chloro-phenyl)-2-hydroxyethylamino]propyl}benzo[1,3] dioxole-2,2-dicarboxylic acid bis-(benzoyloxy-ethyl) ester]
11 | 10 | CC(OC(=O)OC1CCCCC1)OC(=O)C1(C(=O)OC(C)OC(=O)OC2CCCCC2)Oc2ccc(C[C@@H](C)NC[C@H](O)c3cccc(Cl)c3)cc2O1 (stereo partly drawn) [Example 59, 5-{(2R)-2-[(2R)-2-(3-Chloro-phenyl)-2-hydroxy-ethylamino]-propyl}-benzo[1,3]dioxole-2,2-dicarboxylic acid bis-[1-(cyclohexyloxycarbonyloxy)-ethyl] ester]
12 | 0 | CCCCCCCCCCCCOC(=O)C1(C(=O)OCCCCCCCCCCCC)Oc2ccc(CC(C)NCC(O)c3cccc(Cl)c3)cc2O1 (stereo not shown) [Example 20, 5-{2-[2-(3-Chloro-phenyl)-2-hydroxy-ethylamino]-propyl}-benzo[1,3]dioxole-2,2-dicarboxylic acid didodecyl ester]
13 | 0 | CCCC(=O)OCOC(=O)C1(C(=O)OCOC(=O)CCC)Oc2ccc(CC(C)NCC(O)c3cccc(Cl)c3)cc2O1 (stereo not shown) [Example 44, 5-{2-[2-(3-Chloro-phenyl)-2-hydroxyethylamino]propyl}benzo[1,3] dioxole-2,2-dicarboxylic acid bis-butyryloxymethyl ester]
14 | 5 | CCN(CC)C(=O)COC(=O)C1(C(=O)OCC(=O)N(CC)CC)Oc2ccc(C[C@@H](C)NC[C@H](O)c3cccc(Cl)c3)cc2O1 [Example 68, 5-{(2R)-2-[(2R)-2-(3-Chloro-phenyl)-2-hydroxy-ethylamino]-propyl}-benzo[1,3]dioxole-2,2-dicarboxylic acid bis-diethylcarbamoylmethyl ester]
15 | 3 | CC(Cc1ccc2c(c1)OC(C(=O)OCCCC1CCCC1)(C(=O)OCCCC1CCCC1)O2)NCC(O)c1cccc(Cl)c1 (stereo not shown) [Example 37, 5-{2-[2-(3-Chloro-phenyl)-2-hydroxy-ethylamino]-propyl}-benzo[1,3]dioxole-2,2-dicarboxylic acid bis-(3-cyclopentyl-propyl) ester]
16 | 6 | CCCOC(=O)COC(=O)C1(C(=O)OCC(=O)OCCC)Oc2ccc(CC(C)NCC(O)c3cccc(Cl)c3)cc2O1 (stereo not shown) [Example 25, 5-{2-[2-(3-Chloro-phenyl)-2-hydroxy-ethylamino]-propyl}-benzo[1,3]dioxole-2,2-dicarboxylic acid bis-propoxycarbonylmethyl ester]
17 | 4 | CC(Cc1ccc2c(c1)OC(C(=O)OCOC(=O)C(C)(C)C)(C(=O)OCOC(=O)C(C)(C)C)O2)NCC(O)c1cccc(Cl)c1 (stereo not shown) [Example 49, 5-{2-[2-(3-Chloro-phenyl)-2-hydroxyethylamino]propyl}benzo[1,3] dioxole-2,2-dicarboxylic acid bis-(2,2-dimethyl-propionyloxymethyl) ester]
18 | 2 | CCCCCCCCCCOC(=O)C1(C(=O)OCCCCCCCCCC)Oc2ccc(CC(C)NCC(O)c3cccc(Cl)c3)cc2O1 (stereo not shown) [Example 19, 5-{2-[2-(3-Chloro-phenyl)-2-hydroxy-ethylamino]-propyl}-benzo[1,3]dioxole-2,2-dicarboxylic acid bis-decyl ester]
19 | 0 | CCC(=O)OC(C)OC(=O)C1(C(=O)OC(C)OC(=O)CC)Oc2ccc(CC(C)NCC(O)c3cccc(Cl)c3)cc2O1 (stereo not shown) [Example 51, 5-{2-[2-(3-Chloro-phenyl)-2-hydroxyethylamino]propyl}benzo[1,3] dioxole-2,2-dicarboxylic acid bis-(1-propionyloxy-ethyl) ester]
20 | 2 | CCOC(=O)C(C)OC(=O)C1(C(=O)OC(C)C(=O)OCC)Oc2ccc(CC(C)NCC(O)c3cccc(Cl)c3)cc2O1 (stereo not shown) [Example 29, 5-{2-[2-(3-Chloro-phenyl)-2-hydroxy-ethylamino]-propyl}-benzo[1,3]dioxole-2,2-dicarboxylic acid bis-(1-ethoxycarbonyl-ethyl) ester]

Row | Structure (SMILES) | activation at 0.01 µM [%]
21 | CC(Cc1ccc2c(c1)OC(C(=O)OCCOC(C)(C)C)(C(=O)OCCOC(C)(C)C)O2)NCC(O)c1cccc(Cl)c1 (stereo not shown) [Example 6, 5-{2-[2-(3-Chloro-phenyl)-2-hydroxy-ethylamino]-propyl}-benzo[1,3]dioxole-2,2-dicarboxylic acid bis-(2-tert-butoxy-ethyl) ester] | 3

same assay, conditions: CHO, 10 min, read-out: β2: % of isoproterenol activity (increase in cAMP)

Row | Structure (SMILES) | activation at 0.01 µM [%]
22 | Cc1cccc(CCOC(=O)C2(C(=O)OCCc3cccc(C)c3)Oc3ccc(C[C@@H](C)NC[C@H](O)c4cccc(Cl)c4)cc3O2)c1 [Example 97, 5-{(2R)-2-[(2R)-2-(3-Chloro-phenyl)-2-hydroxy-ethylamino]-propyl}-benzo[1,3]dioxole-2,2-dicarboxylic acid bis-(2-m-tolyl-ethyl) ester hydrochloride salt] | 4
23 | CCOCCOC(=O)C1(C(=O)O)Oc2ccc(C[C@@H](C)NC[C@H](O)c3cccc(Cl)c3)cc2O1 (stereo partly drawn) [Example 95, 5-{(2R)-2-[(2R)-2-(3-Chloro-phenyl)-2-hydroxy-ethylamino]-propyl}-benzo[1,3]dioxole-2,2-dicarboxylic acid (2-ethoxy-ethyl) ester] | 0
24 | CCCCOCCOC(=O)C1(C(=O)OCCOCCCC)Oc2ccc(CC(C)NCC(O)c3cccc(Cl)c3)cc2O1 (stereo not shown) [Example 3, 5-{2-[2-(3-Chloro-phenyl)-2-hydroxy-ethylamino]-propyl}-benzo[1,3]dioxole-2,2-dicarboxylic acid bis-(2-butoxy-ethyl) ester hydrochloride salt] | 0
25 | C[C@H](Cc1ccc2c(c1)OC(C(=O)OCCc1cccc(Br)c1)(C(=O)OCCc1cccc(Br)c1)O2)NC[C@H](O)c1cccc(Cl)c1 [Example 96, 5-{(2R)-2-[(2R)-2-(3-Chloro-phenyl)-2-hydroxy-ethylamino]-propyl}-benzo[1,3]dioxole-2,2-dicarboxylic acid bis-[2-(3-bromo-phenyl)-ethyl]ester hydrochloride salt] | 1

Source: patent US5914339A, “Substituted 1,3-benzodioxoles” (American Home Products Corporation, priority 1997, dated 1999)
